The test system of this assay is SARS-CoV-2. In words: Antiviral activity against SARS-CoV-2 Delta (B.1.617.2) infected in African green monkey Vero E6 cells assessed as reduction in viral replication treated for 1 hr followed by replacement with fresh medium containing compounds measured after 23 hrs in presence of CP-100356 by qRT-PCR analysis. The format is functional, organism-based. As to conditions: Severe acute respiratory syndrome coronavirus 2, Delta (B.1.617.2), Vero C1008. Background: Real-time PCR tracks product formation cycle by cycle.

SMILES strings stand for the structures.

In the case of `CC(C)(C)[C@H](NC(=O)C(F)(F)F)C(=O)N1CC2(C[C@H]1C(=O)N[C@H](C#N)C[C@@H]1CCNC1=O)SCCS2`, the EC50 – broadly, the concentration that produces a half-maximal response – is 34 nM.

These data come from ChEMBL document CHEMBL5375961, “Design, Synthesis, and Biological Evaluation of Trisubstituted Piperazine Derivatives as Noncovalent Severe Acute Respiratory Syndrome Coronavirus 2 Main Protease Inhibitors with Improved Antiviral Activity and Favorable Druggability” (J Med Chem, 2023).
